Our source for the EC50, IC50 and outcome values is PubChem BioAssay AID179 (DTP/NCI, 2004).

The term EC50 denotes the concentration needed to bring the measured effect to its halfway point. Usually IC50 stands for the concentration needed to halve the response being measured.

Calls of active or inactive are those of the source.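 How the source made its calls: active means compounds giving half or more protection of infected cells from virus-caused growth loss, again on retest; inactive means the rest.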 Where a SMILES comes first, the peptide text is derived from it. [ ]: non-standard residue; d: D form. The star is where a group is joined. ξ: configuration not given here. Boc = CC(C)(C)OC(=O)*; OBn = c1ccc(CO*)cc1; ξP = O=C(O)C1CCCN1 Where only a bound is given, the exact number is not on record here.

The experiment concerns CEM cells HIV-1 protection, formazan growth assay. In words: NCI AIDS Antiviral Assay. Particulars: for IC50: measured here: growth of uninfected CEM cells. The gist of the method:
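Human CEM cells, uninfected and HIV-1-infected, received five drug concentrations, and growth was read by soluble formazan assay. Compounds giving at least 50% protection were retested; reproducible 100% protection defined confirmed active.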

On to `O=C1NC(=O)c2ccc3c4c(ccc1c24)C(=O)NC3=O`, for which the EC50 was greater than 200 µM and the IC50 is greater than 200 µM.

`C/C(CC(O)(C(F)(F)F)C(F)(F)F)=N\O`: the EC50 is greater than 200 µM and the IC50 is greater than 200 µM.

In the case of `O=C1CCC2(O1)c1ccc(O)cc1Oc1cc(O)ccc12`, the EC50 is greater than 200 µM and the IC50 is greater than 200 µM.

The compound `Cc1ccc2c(c1)C(=O)c1cc(C)cc(C(=O)O)c1-2` gave an EC50 greater than 200 µM and an IC50 greater than 200 µM.

Regarding `CN(C)CC(O)CNC(=O)Nc1ccccc1` (stereo not drawn), the EC50 was greater than 200 µM and the half-maximal inhibitory concentration (IC50) was greater than 200 µM.

The compound `CC(=O)Nc1ccc([As](=O)(O)O)cc1NC(C)=O` came in with an EC50 greater than 200 µM and an IC50 of 28.2 µM.

With `Cc1nc2c(=O)n(C)c(=O)n(C)c2nc1CCC(=O)O`, the EC50 is greater than 200 µM and the IC50 is greater than 200 µM.

For `COc1ccc2c(C3(O)CCNCC3)c[nH]c2c1`, the result was inactive.

Turning to `CC(C)(C)OC(=O)N[C@@H](Cc1ccccc1)C(=O)N1CCCC1C(=O)OCc1ccccc1` (stereo partly drawn) (Boc-Phe-[ξP]-OBn), the EC50 was greater than 41.7 µM and the IC50 was greater than 41.7 µM.

Consider `CC(C)CC(NC(=O)C(Cc1ccc(O)cc1)NC(=O)C(CO)NC(=O)C(C)NC(=O)C(CCCN=C(N)N)NC(=O)C(CCC(=O)O)NC(=O)C(NC(=O)C(N)CCC(=O)O)C(C)C)C(=O)NC(CO)C(=O)NC(CCCCN)C(=O)O` (stereo not drawn) (H-EVERASYLSK-OH; configuration not given here), for which the result was inactive.

With `Cc1ncc(-c2nnnn2-c2ccccc2)c(C(=O)O)n1`, the EC50 was greater than 200 µM and the IC50 is greater than 200 µM.

On to `O=S1(=O)CC2(N3CCOCC3)CCCCC21` (stereo not drawn), for which the EC50 is greater than 1020 µM and the IC50 is greater than 1020 µM.

With `CC#N.CC#N.COC(=O)[C@H]1CCC(=O)[N-]1.COC(=O)[C@H]1CCC(=O)[N-]1.COC(=O)[C@H]1CCC(=O)[N-]1.COC(=O)[C@H]1CCC(=O)[N-]1.[Rh+2].[Rh+2]`, the EC50 is greater than 200 µM and the IC50 is greater than 200 µM.

Consider `CCCc1c2c([nH]c(=O)c1C)C(=O)c1[nH]c(=O)c(C)c(CCC)c1C2=O`, for which the outcome was inactive.

Consider `CCCCCCCCCCCCCCCCN1C(=O)/C(=C\c2ccc(O)cc2)SC1=Nc1ccccc1`, for which the EC50 is greater than 44.7 µM and the IC50 is greater than 44.7 µM.

Consider `CCCOC1=NC2=NC(OCCC)=NC3=C(Br)C=C(Br)C(=N1)N23`, for which the EC50 is greater than 42.7 µM and the IC50 is greater than 42.7 µM.

For the compound `O=S(O)CCCSSCCCCSSCCCS(=O)O`, the outcome was inactive.

Take `Cc1coc2c1C(=O)C(=O)c1c-2ccc2c1CCCC2(C)C`: the EC50 is greater than 200 µM and the IC50 came to 25.7 µM.

As to `Clc1cnc(Oc2ccccc2)c2ccccc12`, the EC50 was greater than 200 µM and the half-inhibitory concentration (IC50) was 64.6 µM.

With `CC(=O)Nc1ccc(S(=O)(=O)N/N=C/c2ccco2)cc1`, the EC50 is greater than 589 µM and the IC50 was 309 µM.

For `O=c1oc2ccccc2c(O)c1/C=N\c1nc(-c2ccc(O)c(O)c2)cs1`, the EC50 was greater than 200 µM and the IC50 is 3.24 µM.

On to `COC1=C(C)C(=O)C2=C(C1=O)C(CO)N1C(C#N)C3CC4C(C1C2N1CCOC41)N3C` (stereo not drawn), for which the EC50 was greater than 1.17 µM and the IC50 amounted to 0.00575 µM.

As to `NC1=NS(=O)(=O)Nc2nc[nH]c21`, the EC50 is greater than 1320 µM and the concentration for half-maximal inhibition (IC50) was greater than 1320 µM.

On to `CCCCCCCCCCCCCCCCNCCCS(=O)(=O)O`, for which the EC50 was greater than 200 µM and the 50% inhibitory concentration (IC50) was 3.89 µM.

Take `CCC[CH2][Sn]([CH2]CCC)([O]C(=O)c1cc(F)cc(F)c1)[O][Sn]([CH2]CCC)([CH2]CCC)[O]C(=O)c1cc(F)cc(F)c1`: the EC50 was greater than 9.12 µM and the IC50 was 1.78 µM.

Consider `Cc1ccc(/C=N/Nc2nncc3ccccc23)s1`, for which the EC50 was greater than 200 µM and the IC50 is greater than 200 µM.

Turning to `COc1cc(OCc2ccccc2)c(O)cc1-c1coc2cc(OCc3ccccc3)ccc2c1=O`, the EC50 is greater than 200 µM and the IC50 was found to be 4.27 µM.

Take `CN(C)C(=S)/N=c1\ss/c(=N/C(=S)N(C)C)n1-c1ccc([N+](=O)[O-])cc1`: the EC50 is greater than 200 µM and the IC50 worked out at 151 µM.

For the compound `Cc1ccc(C)c(C(=O)c2ccccc2C(=O)O)c1`, the concentration giving a half-maximal response (EC50) was greater than 200 µM and the IC50 is greater than 200 µM.

As for `CCOC(=O)c1ccc(N=NC2Sc3nc4ccccc4n3C2=O)cc1` (stereo not drawn), the result was inactive.

With `CC1(O)c2ccccc2CCc2ccccc21`, the EC50 was greater than 32.4 µM and the IC50 was greater than 32.4 µM.

With `C=C1C[C@@H]2C[C@@H](C)CC(O)[C@]2(CCCN)C1O` (stereo partly drawn), the result was inactive.

As for `Cc1cccnc1NC(=S)Nc1ncccc1C`, the EC50 was greater than 200 µM and the IC50 came to 186 µM.

For `COc1cc(=O)n2c3ccccc3n(C)c2c1C#N`, the EC50 was greater than 100 µM and the IC50 was 56.2 µM.

As to `NNC(=O)c1c(SCc2ccccc2)nc2c3ccccc3ccn12`, the EC50 is greater than 200 µM and the IC50 was found to be 15.8 µM.

Regarding `COS(=O)(=O)c1c(N)n(C)c(=O)n(C)c1=O`, the EC50 is greater than 200 µM and the IC50 worked out at 66.1 µM.

With `C=CCn1c2c(c3ccccc3c1=O)C(=O)c1ccccc1-2`, the EC50 is greater than 91.2 µM and the IC50 is greater than 91.2 µM.

Take `CCOC(=O)c1nc2ccc(C(F)(F)F)cc2nc1Oc1ccc(OC)cc1`: the EC50 was greater than 200 µM and the IC50 was greater than 200 µM.

For `BrC(Br)=C1C(=C(Br)Br)C(Br)C1Br` (stereo not drawn), the result was inactive.

With `Cc1ccc(NC(=O)CC2SC(N)=NC2=O)cc1C` (stereo not drawn), the result was inactive.

As to `O=C(NNC(=S)Nc1ccc(Br)cc1)c1cc(-c2ccccc2)nc2ccccc12`, the EC50 is greater than 200 µM and the IC50 stood at 9.77 µM.

With `O=[N+]([O-])c1ccc(-c2cc(O)c3nc4ccccc4n3c2)cc1`, the EC50 was 178 µM and the IC50 is greater than 200 µM.

Take `CCOC(=O)C1C(c2ccc(F)cc2)C(C(=O)OCC)C(O)(C(F)(F)F)OC1(O)C(F)(F)F` (stereo not drawn): the outcome was inactive.

As to `CN1C(=O)C2(Cc3cn(C45CC67SSC(CO)(C(=O)N6C4Nc4ccccc45)N(C)C7=O)c4ccccc34)SSC1(CO)C(=O)N2C` (stereo not drawn), the EC50 was greater than 0.2 µM and the IC50 was determined as 0.00661 µM.

With `CN1C(=O)C(O)CC1c1cccc(C(F)(F)F)c1` (stereo not drawn), the result was inactive.

With `Cn1c2ccccc2n2c3ncccc3c(=NCCCC(=O)O)c(C#N)c12`, the EC50 was greater than 200 µM and the IC50 was greater than 200 µM.

In the case of `C[N+](C)(CCOc1ccccc1)Cc1cccs1`, the EC50 was greater than 200 µM and the IC50 was greater than 200 µM.

In the case of `CCOC(=O)C1=NN(c2ccc([N+](=O)[O-])cc2)[C@@]2(C)C[C@]3(c4ccccc4)N(c4ccc([N+](=O)[O-])cc4)N=C(C(=O)OCC)N3c3ccccc3N12`, the EC50 is greater than 200 µM and the IC50 is greater than 200 µM.

Take `COC(=O)C1(C#N)C(C)(C)N=C(c2ccccc2)C12CCCCC2` (stereo not drawn): the EC50 was greater than 200 µM and the IC50 was 93.3 µM.

Regarding `N[C@@H](C[S-])C(=O)O.O=[N+]([O-])O.[Ag+]`, the EC50 was greater than 200 µM and the half-maximal inhibitory concentration (IC50) was 126 µM.

In the case of `Cn1cc(C(=O)/C(Cl)=C(\Cl)C(=O)O)c2ccccc21`, the result was inactive.

As to `CCCCCC(/C=C/C1CCC(=O)C1CC#C[Si](C)(C)C)OCc1ccccc1` (stereo not drawn), the EC50 was greater than 200 µM and the IC50 is 27.5 µM.
